System: T1, cholate-CytOx; isolated cytochrome c oxidase from bovine heart
T1 construct: gene MT-CO1; with Cytochrome c oxidase subunit 1; Cytochrome c oxidase subunit 2; Cytochrome c oxidase subunit 3; Cytochrome c oxidase subunit 5A, mitochondrial; Cytochrome c oxidase subunit 5B, mitochondrial; Cytochrome c oxidase subunit 6A2, mitochondrial; Cytochrome c oxidase subunit 6B1; Cytochrome c oxidase subunit 6C; Cytochrome c oxidase subunit 7A1, mitochondrial; Cytochrome c oxidase subunit 7B, mitochondrial; Cytochrome c oxidase subunit 7C, mitochondrial; Cytochrome c oxidase subunit 8B, mitochondrial
Test: UV/VIS absorption spectroscopy, displacement of bound cholate by ADP
Type: binding, Bos taurus
Details: 0 °C, pH 7.4; cholate bound during purification; nucleotide sites

C[C@H](CCC(=O)O)[C@H]1CC[C@H]2[C@@H]3[C@H](O)C[C@@H]4C[C@H](O)CC[C@]4(C)[C@H]3C[C@H](O)[C@]12C [cholate]
UV/VIS absorption spectroscopy, displacement of bound cholate by ADP: exchange of cholate by ADP is a very slow process with a half-time of about
